Source: patent US20240101563A1, “NOVEL COMPOUNDS” (AC Immune SA, priority 2022, published 2024)
Values belong to the molecule of their own block, whether it stands above or below them.

Key:
[1] = test system: IL-1β; experiment: Inhibition of IL-1β in an LPS/ATP induced acute peritonitis mouse model; assay type: in vivo; settings: BALB/c mice; dosed 30 min before LPS i.p.; ATP i.p. 120 min after LPS; PW 30 min post ATP; vs LPS-ATP, 0 mg/kg
Procedure: 1.2.1 The efficacy of Example compounds 53 and 18 in an LPS/ATP-induced acute peritonitis was evaluated: LPS (Lipopolysaccharide) and ATP (Adenosine triphosphate) were administered to BALB/c mice by intraperitoneal (i.p.) injection to elicit an acute inflammatory response in the peritoneal cavity.
Mice (BALB/c mice, aged 6-8 w, females) were challenged with 50 μg/kg LPS by intraperitoneal (i.p.) injection. 120 min after LPS administration, ATP was delivered by i.p. injection at 50 mM in 200 μL. […]
Cytometric Bead Array (CBA) Assay for IL-1β detection was performed on the peritoneal wash supernatant as follows: supernatants or cytokine standards were incubated with the capture beads mixture for 1 hour at room temperature. […] After washing in Wash Buffer containing 1×PBS, blocking protein, and detergent, the beads were re-suspended and analyzed by flow cytometry.
The cytokine analysis raw data were analyzed using FACP. […] Data were expressed as the Mean±SD. […]

[2] = test system: NLRP3 inflammasome pathway; experiment: NLRP3 inflammasome pathway activation assay, MSU stimulation, IL-1β HTRF; assay type: cell-based; settings: Homo sapiens, 3 h, Table 7; PMA-differentiated, LPS-primed cells; MSU 200 μg/mL for 3 h; IL-1β release; read-out: IC50 Human monocyte-like cells MSU
How it was run: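 Human monocyte-like cells differentiated overnight with 10 ng/mL PMA, primed 3 h with 10 ng/mL LPS, given compound ([…]) 30 min before 3 h stimulation with Nigericin 3.75 μM or MSU 200 μg/mL. Supernatant IL-1β quantified by HTRF; IC50 at 50% inhibition.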

[3] = test system: NLRP3 inflammasome pathway; experiment: NLRP3 inflammasome pathway activation assay, Nigericin stimulation, IL-1β HTRF; assay type: cell-based; settings: Homo sapiens, 3 h, Table 7; PMA-differentiated, LPS-primed cells; Nigericin 3.75 μM for 3 h; IL-1β release; read-out: IC50 Human monocyte-like cells Nigericin
Procedure: The following assays were used to determine the inhibitory activity of test compounds on the NLRP3 inflammasome pathway using common stimuli Nigericin (Invivogen) or monosodium urate crystals (MSU) (Invivogen).
Human monocyte-like cells were cultured in RPMI-1640 Glutamax medium supplemented with 10% heat inactivated FBS (Fetal Bovine Serum) and 50 U/mL penicillin-streptomycin (Life Technologies).
Human monocyte-like cells were seeded at 25000 per well in a 384-well plate and were differentiated overnight into macrophages with 10 ng/mL PMA (Phorbol Myristate Acetate). The following day, medium containing 10 ng/mL LPS (Lipopolysaccharide) was added. After 3 hours of LPS priming, concentrations of test compound in the range from […] were added 30 min prior to NLRP3 inflammasome pathway stimulation with Nigericin 3.75 μM or MSU 200 μg/mL for 3 h.
For IL-1p quantification, supernatants were analyzed using HTRF kit according to the manufacturer's instructions (Cisbio 62HIL1BPEH). Briefly, in a 384-well ProxiPlate™ microplate, 8 μl of sample was mixed, with 5 μl of Anti-IL1β Cryptate antibody (40×) and Anti-IL1β XL antibody (40×). Then, incubated overnight at RT. Reading was done using an EnVision Reader (PerkinElmer).
IC50 (concentration corresponding to 50% inhibition) were determined using GraphPad Prism 9.

Structure (SMILES): Cc1cc(C(F)(F)F)cc(O)c1-c1nc2nc(NC3CCN(C)C3)ccc2n1C (racemic) [Example 18, 3-methyl-2-(1-methyl-5-((1-methylpyrrolidin-3-yl)amino)-1H-imidazo[4,5-b]pyridin-2-yl)-5-(trifluoromethyl)phenol]
IL-1β release in peritoneal wash (PW) [1]: significantly reduced IL-1p release in PW in a dose response manner

IC50 [2]: < 100 nM
Structure (SMILES): Cc1cc(C(F)(F)F)cc(O)c1-c1nc2nc(OC3CCN(C)C3)cnc2n1C (single isomer, unassigned) [Example 53, 3-methyl-2-(1-methyl-5-((1-methylpyrrolidin-3-yl)oxy)-1H-imidazo[4,5-b]pyrazin-2-yl)-5-(trifluoromethyl)phenol]
IL-1β release in peritoneal wash (PW) [1]: significantly reduced IL-1β release in PW in a dose response manner

Structure (SMILES): CN1CCC[C@@H](Oc2ccc3c(n2)nc(-c2ccc(C(F)(F)F)cc2O)n3C)C1 [Example 25, (R)-2-(1-methyl-5-((1-methylpiperidin-3-yl)oxy)-1H-imidazo[4,5-b]pyridin-2-yl)-5-(trifluoromethyl)phenol]
IC50 [3]: 100 to 1000 nM
IC50 [2]: < 100 nM

Structure (SMILES): COc1ccc2c(n1)nc(-c1c(C)cc(Cl)cc1O)n2C [Example 29, 5-chloro-2-(5-methoxy-1-methyl-1H-imidazo[4,5-b]pyridin-2-yl)-3-methylphenol]
IC50 [3]: 100 to 1000 nM
IC50 [2]: < 100 nM

Structure (SMILES): COc1ccc2c(n1)nc(-c1ccc(C(F)(F)F)cc1O)n2C [Example 24, 2-(5-methoxy-1-methyl-1H-imidazo[4,5-b]pyridin-2-yl)-5-(trifluoromethyl)phenol]
IC50 [3]: < 100 nM
IC50 [2]: 100 to 1000 nM

Structure (SMILES): CCn1c(-c2ccc(C(F)(F)F)cc2O)nc2nc(NC3CCN(C)C3)ccc21 (single isomer, unassigned) [Example 9, 2-(1-ethyl-5-((1-methylpyrrolidin-3-yl)amino)-1H-imidazo[4,5-b]pyridin-2-yl)-5-(trifluoromethyl)phenol]
IC50 [3]: 100 to 1000 nM
IC50 [2]: < 100 nM
